Laboratory results from ChEMBL document CHEMBL1201862, “PubChem BioAssay data set” (2004).
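Test compounds were applied to cells in 96-well plates for 48 hours at 5 doses. Abbreviation: GI50, concentration required for 50% inhibition of growth.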 The source made the active and inactive calls. Cut-off read from the data, not from the text of the source: active = GI50 up to about 1.1 µM and inactive = higher.

Tests used:
Test in all cases: DTP human tumour cell line panel, 48 h
[1] = system: HCT-116
[2] = system: SK-MEL-5
[3] = system: SN12C
[4] = system: NCI/ADR-RES
[5] = system: OVCAR-5
[6] = system: CAKI-1
[7] = system: SF-295
[8] = system: ACHN
[9] = system: SF-539
[10] = system: SW-620
[11] = system: SK-OV-3
[12] = system: KM12
[13] = system: TK-10
[14] = system: Hs-578T
[15] = system: A549
[16] = system: OVCAR-8
[17] = system: UACC-257
[18] = system: MDA-MB-231
[19] = system: COLO 205
[20] = system: U-251
[21] = system: T47D
[22] = system: NCI-H522
[23] = system: MOLT-4
[24] = system: HCT-15
[25] = system: A498
[26] = system: MDA-MB-435
[27] = system: HOP-62
[28] = system: K562
[29] = system: SK-MEL-2
[30] = system: BT-549
[31] = system: SNB-75
[32] = system: SNB-19
[33] = system: UACC-62
[34] = system: OVCAR-3
[35] = system: EKVX
[36] = system: SF-268
[37] = system: SR
[38] = system: RXF 393
[39] = system: PC-3
[40] = system: CCRF-CEM
[41] = system: NCI-H23
[42] = system: 786-0
[43] = system: SK-MEL-28
[44] = system: DU-145
[45] = system: M14
[46] = system: IGROV-1
[47] = system: HOP-92
[48] = system: UO-31
[49] = system: HCC 2998
[50] = system: NCI-H226
[51] = system: MDA-N
[52] = system: MCF7
[53] = system: HL-60
[54] = system: NCI-H460
[55] = system: OVCAR-4
[56] = system: LOX IMVI
[57] = system: RPMI-8226
[58] = system: HT-29
[59] = system: Malme-3M

Measured: GI50

CN(O)C(=O)c1cccc(Cl)c1
56.1 µM: [24]
inactive: [1] > 100 µM | [2] > 100 µM | [3] > 100 µM | [4] > 100 µM | [5] > 100 µM | [6] > 100 µM | [7] > 100 µM | [8] > 100 µM | [9] > 100 µM | [10] > 100 µM | [11] > 100 µM | [12] > 100 µM | [13] > 100 µM | [14] > 100 µM | [15] > 100 µM | [16] > 100 µM | [17] > 100 µM | [18] > 100 µM | [19] > 100 µM | [20] > 100 µM | [21] > 100 µM | [22] > 100 µM | [23] 51.2 µM | [25] > 100 µM | [26] > 100 µM | [27] > 100 µM | [28] > 100 µM | [29] > 100 µM | [30] > 100 µM | [31] > 100 µM | [32] > 100 µM | [33] > 100 µM | [34] > 100 µM | [35] > 100 µM | [36] > 100 µM | [37] 32.7 µM | [38] > 100 µM | [39] > 100 µM | [40] 60 µM | [41] > 100 µM | [42] > 100 µM | [43] > 100 µM | [44] > 100 µM | [45] > 100 µM | [46] 91.8 µM | [47] > 100 µM | [48] > 100 µM | [49] > 100 µM | [50] > 100 µM | [51] > 100 µM | [52] > 100 µM | [53] 10.2 µM | [54] 95.1 µM | [55] > 100 µM | [56] > 100 µM | [57] > 100 µM | [58] 70.6 µM

N#CC1N(C(=O)c2ccc(F)cc2)c2ccccc2N1C(=O)c1ccc(F)cc1
31.3 µM: [24]
inactive: [1] 42.3 µM | [2] 23.9 µM | [3] 77.8 µM | [4] 26.7 µM | [5] > 100 µM | [6] 62.8 µM | [7] > 100 µM | [8] 38.5 µM | [9] 62.7 µM | [10] 47.9 µM | [11] > 100 µM | [12] 91.6 µM | [13] 50.9 µM | [14] 68.1 µM | [15] > 100 µM | [16] 48.1 µM | [17] 67.6 µM | [18] 46.7 µM | [19] 21.8 µM | [20] 74.5 µM | [21] 27.2 µM | [22] 34.4 µM | [23] 17.3 µM | [25] > 100 µM | [26] 46.1 µM | [27] > 100 µM | [28] 28.2 µM | [29] > 100 µM | [30] 24.9 µM | [31] 30.7 µM | [32] > 100 µM | [33] 37.6 µM | [34] 19.9 µM | [35] 44.4 µM | [36] > 100 µM | [37] 70.3 µM | [38] 71.6 µM | [39] 49.1 µM | [40] 28 µM | [41] 50.4 µM | [42] 74.5 µM | [43] 43.9 µM | [44] 32.9 µM | [45] 43.8 µM | [46] 32.4 µM | [47] 18.5 µM | [48] 37.7 µM | [49] 39.7 µM | [50] 31.1 µM | [59] 68.9 µM | [51] 48.5 µM | [52] 33 µM | [53] 40.3 µM | [54] 38.2 µM | [55] 35.7 µM | [56] 29 µM | [57] 23.7 µM | [58] 33 µM

COc1ccc(COCC[C@H](C)OC2OC(CO[Si](C)(C)C(C)(C)C)C(O)C(O)C2O)cc1 (some centres undefined)
> 100 µM: [24]
inactive: [1] > 100 µM | [2] > 100 µM | [3] > 100 µM | [4] > 100 µM | [5] > 100 µM | [6] > 100 µM | [7] > 100 µM | [8] > 100 µM | [9] > 100 µM | [10] > 100 µM | [11] > 100 µM | [12] > 100 µM | [13] > 100 µM | [14] > 100 µM | [15] > 100 µM | [16] > 100 µM | [17] > 100 µM | [18] > 100 µM | [19] > 100 µM | [20] > 100 µM | [21] > 100 µM | [22] > 100 µM | [23] 56.9 µM | [25] > 100 µM | [26] > 100 µM | [27] > 100 µM | [28] > 100 µM | [29] > 100 µM | [30] > 100 µM | [31] 44.2 µM | [32] > 100 µM | [33] > 100 µM | [34] > 100 µM | [35] > 100 µM | [36] > 100 µM | [37] > 100 µM | [38] > 100 µM | [39] 72.9 µM | [40] > 100 µM | [41] > 100 µM | [42] > 100 µM | [43] > 100 µM | [44] > 100 µM | [45] > 100 µM | [46] > 100 µM | [47] > 100 µM | [48] 81.8 µM | [49] > 100 µM | [50] > 100 µM | [59] > 100 µM | [51] > 100 µM | [52] > 100 µM | [53] > 100 µM | [54] > 100 µM | [55] > 100 µM | [56] > 100 µM | [57] > 100 µM | [58] > 100 µM

CSC(=S)N/N=C/c1ccccc1
34.4 µM: [24]
inactive: [1] 29.6 µM | [2] 22.5 µM | [3] 50.2 µM | [4] 25.4 µM | [5] > 100 µM | [6] 24.5 µM | [7] 39.2 µM | [8] 43.4 µM | [9] 56.6 µM | [10] 54.8 µM | [11] > 100 µM | [12] 65.6 µM | [13] > 100 µM | [14] > 100 µM | [15] 43.2 µM | [16] 37.1 µM | [17] > 100 µM | [18] > 100 µM | [19] 31.5 µM | [20] 52.6 µM | [21] 16.3 µM | [22] 52.6 µM | [25] > 100 µM | [26] 47.4 µM | [27] 40.7 µM | [28] 42.5 µM | [29] > 100 µM | [30] 46.3 µM | [31] 58.7 µM | [32] 53.7 µM | [33] 37.4 µM | [34] 42 µM | [35] 24.4 µM | [36] 40.1 µM | [37] 40.8 µM | [38] 28.8 µM | [39] 97.9 µM | [40] 26 µM | [41] 33.5 µM | [42] 39.4 µM | [43] 94.2 µM | [44] 42.3 µM | [45] 29.4 µM | [46] 22.3 µM | [47] 26.9 µM | [48] 34.7 µM | [49] > 100 µM | [50] 40.6 µM | [59] 36.5 µM | [51] 41.9 µM | [52] 33.6 µM | [53] 36 µM | [54] 43.7 µM | [55] 24.3 µM | [56] 45.1 µM | [57] 36.4 µM | [58] 33 µM
